Assay results reported in patent publication US20190094204A1, “MEMBRANE TRANSPORTER ASSAY AND METHODS OF USE” (Howard Hughes Medical Institute, priority 2017, published 2019).
“Also recorded” adds a separate entry of the source.

What was measured:
EAAT2 [1] = biological target: T1, EAAT2 (Homo sapiens, UniProt P43004); experiment: OSTA of EAAT2-mediated glutamate transport (cytosolic iGluSnFR); format: cell-based; details: for effect on EAAT2 activity (negative control): 10 mM sodium salicylate, same Na+/K+/glutamate stimulus
T1 construct: expressed in transfected cells; host or cells: HEK-293 (ATCC #CRL-1573)

EAAT2 [2] = biological target: T1, EAAT2; details: EAAT2 inhibitor; Tsukada et al., 2005 Neuropharmacology 48:479-491; cited from earlier work
SLC26a3 = SLC26a3 (Homo sapiens, UniProt P40879); details: washout after 10 mM salicylate; HEK-293 cells expressing SLC26a3
Sequence of SLC26a3 (P40879 whole entry, species assumed): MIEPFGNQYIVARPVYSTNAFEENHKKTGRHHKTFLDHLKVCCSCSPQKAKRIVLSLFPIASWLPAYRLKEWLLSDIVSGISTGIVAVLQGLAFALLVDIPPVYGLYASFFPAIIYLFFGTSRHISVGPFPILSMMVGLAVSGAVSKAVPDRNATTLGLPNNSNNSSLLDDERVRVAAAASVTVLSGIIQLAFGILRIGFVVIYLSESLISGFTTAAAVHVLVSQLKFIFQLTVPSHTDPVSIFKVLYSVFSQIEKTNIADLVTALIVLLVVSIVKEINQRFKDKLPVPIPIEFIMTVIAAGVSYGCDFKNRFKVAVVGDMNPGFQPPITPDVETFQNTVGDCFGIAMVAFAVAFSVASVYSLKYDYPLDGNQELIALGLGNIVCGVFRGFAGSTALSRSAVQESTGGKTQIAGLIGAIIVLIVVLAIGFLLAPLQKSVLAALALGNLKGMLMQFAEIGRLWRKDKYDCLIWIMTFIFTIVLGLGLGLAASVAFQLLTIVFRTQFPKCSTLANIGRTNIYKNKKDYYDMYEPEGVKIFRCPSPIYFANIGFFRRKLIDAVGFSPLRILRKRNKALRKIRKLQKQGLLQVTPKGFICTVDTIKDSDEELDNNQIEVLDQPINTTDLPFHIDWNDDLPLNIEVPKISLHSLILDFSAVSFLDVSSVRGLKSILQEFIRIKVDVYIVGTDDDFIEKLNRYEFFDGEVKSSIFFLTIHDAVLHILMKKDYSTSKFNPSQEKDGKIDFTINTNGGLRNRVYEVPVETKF

T1 sequence (P43004 whole entry, species assumed, the tested form may be a part): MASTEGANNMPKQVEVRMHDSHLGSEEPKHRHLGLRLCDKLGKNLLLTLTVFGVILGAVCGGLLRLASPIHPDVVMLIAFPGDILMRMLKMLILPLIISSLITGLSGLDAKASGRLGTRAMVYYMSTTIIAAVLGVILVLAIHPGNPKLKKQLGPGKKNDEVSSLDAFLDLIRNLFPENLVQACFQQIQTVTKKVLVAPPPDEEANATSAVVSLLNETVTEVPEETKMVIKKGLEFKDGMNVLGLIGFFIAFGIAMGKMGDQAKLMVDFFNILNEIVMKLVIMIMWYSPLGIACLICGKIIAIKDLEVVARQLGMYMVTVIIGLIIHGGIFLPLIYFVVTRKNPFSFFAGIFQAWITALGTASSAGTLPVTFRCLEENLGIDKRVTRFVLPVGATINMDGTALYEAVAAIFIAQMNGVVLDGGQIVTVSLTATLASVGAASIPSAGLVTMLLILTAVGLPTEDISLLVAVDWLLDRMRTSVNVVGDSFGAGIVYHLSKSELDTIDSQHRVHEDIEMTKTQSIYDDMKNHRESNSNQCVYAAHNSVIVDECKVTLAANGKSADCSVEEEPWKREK

Row | onset and washout of EAAT2 inhibition (EAAT2 [1]; 2 μM TFB-TBOA) | Compound | effect on EAAT2 glutamate oscillations (EAAT2 [1]; 2 μM TFB-TBOA, combined Na+/K+/glutamate stimulus (0-10 mM glutamate), HEK-293 cells) | IC50 (EAAT2 [2]) | effect on EAAT2 activity (negative control) (EAAT2 [1]; HEK-293 cells) | effect on EAAT2 activity (negative control) (EAAT2 [1]; HEK-293 cells, listed as sodium salicylate) | oscillating response after washout (SLC26a3)
1 | rapid onset and slower washout | N[C@H](C(=O)O)[C@H](OCc1cccc(NC(=O)c2ccc(C(F)(F)F)cc2)c1)C(=O)O [TFB-TBOA] | complete abrogation of oscillating signal; also recorded: completely abolished the oscillations | ~17 nM | – | – | –
2 | – | O=C([O-])c1ccccc1O.[Na+] [salicylate, sodium salicylate] | – | – | relative indifference | no effect on EAAT2 activity | return to the initial oscillating response
